# Measurements taken from PMC9977398, “Next-generation membrane-active glycopeptide antibiotics that also inhibit bacterial cell division” (Chemical Science, 2023).
# Columns and labels:
# [1] = system: GFP-FtsI expressing E. coli; parameters: method as in PMID 19995973; details: known inhibitor of FtsI; 22 μM in Fig. 5C; cited from earlier work
# [2] = system: carbapenem-resistant A. baumannii; experiment: Murine chronic burn-wound infection model; format: in vivo, mice; details: 30 mg kg^−1 topically for 5 days; untreated 8 log CFU g^−1
# Protocol: Fig. 6 (A) Propensity of vancomycin and VanQAmC10 to induce resistance in MRSA upon serial exposure to sub-MIC concentrations; (B) (i) experimental design for in vivo efficacy study in a murine thigh infection model, (ii) in vivo efficacy of VanQAmC10 and vancomycin against the multidrug-resistant methicillin-resistant S. aureus (MRSA) (n = 3/dose). Antibiotics were administered intraperitoneally twice at 12 h intervals at a dose of 12 mg kg^−1. (C) (i) Experimental design for in vivo efficacy study in murine burn wound infection model, (ii) in vivo efficacy of VanQAmC10 and colistin against the carbapenem-resistant A. baumannii (n = 5/dose, 1 mouse died in untreated control). VanQAmC10 and colistin were treated topically at 30 mg kg^−1 for 5 days (‘***’ indicates p < 0.0001, ‘**’ indicates p < 0.001, ‘*’ p < 0.05, p = 0.08 (n.s.) for VanQAmC10 with respect to vancomycin).
# Further, the efficacy of VanQAmC10 (8) was tested in a chronic burn-wound infection model of A. baumannii.[40] Chronic burn wounds on the back of mice were infected with A. baumannii. […] Infected mice were treated with 30 mg kg^−1 of VanQAmC10 and colistin for five days consecutively. The bacterial load in the untreated group increased to 8 log CFU g^−1 six days post-infection. […] The use of colistin is however limited due to its toxicity and bacteria easily develop resistance to it. […]
Molecule,phenotype and localization of GFP-FtsI [1],lower bacterial load as compared to the untreated mice [2] [log CFU g^−1]
CC1=C(C(=O)O)N2C(=O)[C@@H](NC(=O)[C@H](N)c3ccccc3)[C@H]2SC1 [Cephalexin],filamentous phenotype with mislocalized GFP-FtsI protein,–
colistin [reference compound],–,4.8
